Source: patent US11583512B2, “Composition for relieving itch or irritation of skin, comprising thymol trimethoxycinnamate” (Amorepacific Corporation, priority 2020, dated 2023)

Target: T1, voltage-gated sodium channel Nav1.7 (Homo sapiens, UniProt Q15858)
T1 construct: host or cells: HEK293
Test: Nav1.7 inhibition, membrane potential fluorescence dye assay with veratridine stimulation in Human Nav1.7-HEK293 cells
Format: cell-based
Conditions: 30 μM veratridine as stimulant
Experimental: Human Nav1.7-HEK293 cells are HEK293 (human embryonic kidney 293) cells stabilized by transforming the human Nav1.7 gene. One day before experiment, the Human Nav1.7-HEK293 cells were dispensed onto a 96-well plate with 8×10^4 cells/well and cultured in a 5% CO2 incubator at 37° C. for 24 hours. DMEM/F12 containing 10% fetal bovine serum (FBS) was used as a culture medium and geneticin (Gibco®, Thermo Fisher Scientific) was added to stabilize the cells.
24 hours later, after washing the 96-well plate once with a 20 mM HEPES Hanks' balanced salt solution (HBSS) buffer (hereinafter, referred to as a reaction buffer, Invitrogen®, Thermo Fisher Scientific), a membrane potential fluorescence dye (FLIPR®, Molecular Devices) was added to the human Nav1.7-HEK293 cells. […] After reaction for 10 minutes, the change in membrane potential depending on treatment with 30 μM veratridine as a stimulant was measured for each well for 55 seconds using a fluorescence plate reader (FlexStation3, Molecular Device, USA).
The inhibition rate was calculated in the same manner also for lidocaine (Sigma) which is used as a local anesthetic and itch-relieving agent.

T1 sequence (Q15858 whole entry): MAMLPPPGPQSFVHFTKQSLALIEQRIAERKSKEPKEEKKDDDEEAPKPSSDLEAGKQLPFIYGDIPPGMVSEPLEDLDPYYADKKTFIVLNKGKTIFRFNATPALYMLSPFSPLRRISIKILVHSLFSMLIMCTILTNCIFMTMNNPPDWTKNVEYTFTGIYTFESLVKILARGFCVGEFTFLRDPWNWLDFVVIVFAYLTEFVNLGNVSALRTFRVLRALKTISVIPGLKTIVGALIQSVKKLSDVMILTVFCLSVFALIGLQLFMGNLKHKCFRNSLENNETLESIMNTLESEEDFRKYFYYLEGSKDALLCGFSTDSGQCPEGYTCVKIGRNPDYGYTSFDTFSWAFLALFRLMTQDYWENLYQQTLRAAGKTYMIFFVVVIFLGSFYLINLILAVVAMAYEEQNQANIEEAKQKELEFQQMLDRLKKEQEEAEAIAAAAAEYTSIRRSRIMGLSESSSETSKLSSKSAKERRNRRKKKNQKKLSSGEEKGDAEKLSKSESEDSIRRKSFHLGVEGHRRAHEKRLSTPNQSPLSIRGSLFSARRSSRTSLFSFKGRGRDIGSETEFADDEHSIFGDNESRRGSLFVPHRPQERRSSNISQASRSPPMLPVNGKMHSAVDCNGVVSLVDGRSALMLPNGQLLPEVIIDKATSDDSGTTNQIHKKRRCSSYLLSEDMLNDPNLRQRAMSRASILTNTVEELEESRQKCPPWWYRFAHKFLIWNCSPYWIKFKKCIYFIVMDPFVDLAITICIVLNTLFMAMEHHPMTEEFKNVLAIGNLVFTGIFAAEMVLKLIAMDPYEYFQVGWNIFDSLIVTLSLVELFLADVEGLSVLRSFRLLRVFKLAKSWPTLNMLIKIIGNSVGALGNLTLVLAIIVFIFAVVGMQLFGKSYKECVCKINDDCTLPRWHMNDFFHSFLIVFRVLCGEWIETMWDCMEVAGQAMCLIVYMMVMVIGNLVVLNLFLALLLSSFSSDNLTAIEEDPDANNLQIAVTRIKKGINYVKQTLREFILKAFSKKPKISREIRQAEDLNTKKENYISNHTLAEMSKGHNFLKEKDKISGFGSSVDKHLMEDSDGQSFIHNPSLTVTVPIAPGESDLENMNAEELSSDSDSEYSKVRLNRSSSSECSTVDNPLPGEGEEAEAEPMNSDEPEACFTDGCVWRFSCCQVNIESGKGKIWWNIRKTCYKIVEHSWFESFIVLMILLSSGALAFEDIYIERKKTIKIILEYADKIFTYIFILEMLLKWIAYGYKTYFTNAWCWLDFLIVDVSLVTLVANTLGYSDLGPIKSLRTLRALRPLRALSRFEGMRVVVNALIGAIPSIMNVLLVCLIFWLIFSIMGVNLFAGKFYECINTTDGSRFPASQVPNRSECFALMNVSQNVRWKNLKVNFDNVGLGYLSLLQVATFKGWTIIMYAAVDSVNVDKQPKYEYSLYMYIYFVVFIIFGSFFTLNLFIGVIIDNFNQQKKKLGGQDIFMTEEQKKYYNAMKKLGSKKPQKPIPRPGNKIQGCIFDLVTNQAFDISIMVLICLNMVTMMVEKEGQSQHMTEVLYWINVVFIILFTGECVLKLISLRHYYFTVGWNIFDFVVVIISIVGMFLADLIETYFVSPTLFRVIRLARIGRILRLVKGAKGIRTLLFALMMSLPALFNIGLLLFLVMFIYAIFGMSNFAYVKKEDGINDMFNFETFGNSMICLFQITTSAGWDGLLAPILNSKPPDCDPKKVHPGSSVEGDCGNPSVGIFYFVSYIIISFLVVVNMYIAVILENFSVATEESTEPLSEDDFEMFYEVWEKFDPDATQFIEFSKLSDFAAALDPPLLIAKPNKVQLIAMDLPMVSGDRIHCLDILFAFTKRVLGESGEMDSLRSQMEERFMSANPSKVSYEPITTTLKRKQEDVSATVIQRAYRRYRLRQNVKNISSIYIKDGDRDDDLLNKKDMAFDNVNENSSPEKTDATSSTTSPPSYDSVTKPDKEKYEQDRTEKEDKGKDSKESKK

CCN(CC)CC(=O)Nc1c(C)cccc1C [Lidocaine, lidocaine]
IC50: 28.7 µM
